Measurements published in patent publication US20220265759A1, “COMPOSITION AND METHOD FOR PROMOTING WOUND HEALING” (THE BOARD OF TRUSTEES OF THE UNIVERSITY OF ILLIOIS, priority 2019, published 2022).
One block for each molecule: values may come before it. Square brackets hold non-standard residues; d marks the D form. Ends that are not written are not given here. Peptide text beside a SMILES is read from it. * marks the point of attachment. d2Nal = N[C@H](Cc1ccc2ccccc2c1)C(=O)O; Myristoyl = CCCCCCCCCCCCCC(=O)*; Aib = CC(C)(N)C(=O)O

Legend:
[1] = cited from earlier work
CCR10-eNOS interaction [2] = molecular target: T1, CCR10-eNOS interaction (Homo sapiens, UniProt P46092); assay: Co-IP of CCR10-eNOS interaction in HUVECs stimulated with A23187; format: cell-based; conditions: endothelial cells (HUVECs), pretreatment 50 μM, 5 μM A23187 for 5 minutes, vs control peptide
T1 construct: host or cells: HUVEC (primary human umbilical vein endothelial cells)
T1 sequence (P46092 1-362): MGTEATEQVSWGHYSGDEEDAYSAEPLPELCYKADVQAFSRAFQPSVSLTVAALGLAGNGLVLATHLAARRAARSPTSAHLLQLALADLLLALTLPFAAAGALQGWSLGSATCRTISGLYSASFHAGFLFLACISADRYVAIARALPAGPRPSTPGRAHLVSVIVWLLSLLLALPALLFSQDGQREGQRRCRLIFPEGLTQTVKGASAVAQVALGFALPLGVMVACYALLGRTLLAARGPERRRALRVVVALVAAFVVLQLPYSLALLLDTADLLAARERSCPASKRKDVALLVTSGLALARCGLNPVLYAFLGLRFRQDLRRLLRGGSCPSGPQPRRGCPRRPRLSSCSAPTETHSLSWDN
Method: Immunoblot and Co-Immunoprecipitation (Co-IP). After serum starvation, inhibitors were added 45 minutes prior to stimulation for indicated times at 37° C., and cells were then collected and lysed for western blot analysis. After probing for p-eNOS (Ser1177), p-p85 (Tyr458), p-Src (Tyr 416), and p-ERK (T202/Y204), the same blots were stripped and re-probed for total proteins mentioned above. For detection of CCL28-induced protein levels of β-catenin and Bcl-2, near-confluent endothelial cells were incubated with 500 ng/ml CCL28 for 24 hours in EGM-2 medium containing 1% FBS.
(§1) Co-IP Experiments, cells or mouse wounds were collected after treatment, and lysed in 2% ODG in Tris buffer. The homogenates were further prepared for Co-IP experiments as described in the art (Chen, et al. (2018) Mol. Biol. Cell 29(10):1190-1202; Chen, et al. (2020) FASEB J. 34(4):5838-5850; Chen, et al. (2015) Ann. Rheum. Dis. 74:1898-1906).
Therefore, the effect of inhibition of CCR10-eNOS interaction was investigated using a panel of cell-permeable peptides based on the sequence of the predicted interaction domain on eNOS. Similar peptides have been described in determining the solution structure of calmodulin bound to the target peptide of eNOS (Piazza, et al. (2014) Biochemistry 53(8):1241-9; Piazza, et al. (2016) Biochemistry 55(42):5962-71). First, myristoylated 20 amino acid peptide (491-[…]-510 (P1); SEQ ID NO:61) was synthesized based on the sequence of human eNOS (which is conserved in mouse eNOS). […] It was subsequently determined whether truncated versions of the CBD-derived peptide would have the same effect.

HUVECs = assay: Endothelial cell tube formation induced by CCL28; format: cell-based, human; conditions: induced by 500 ng/ml CCL28
Method: Endothelial Cell Tube Formation. HUVECs were transfected with eNOS (50 nM), CCR10 (100 nM), or scrambled control (100 nM) siRNA and, after 48 hours, the cells were transferred to 96-well plates preloaded with extracellular matrix sold under the tradename […]®. To examine the CCL28 signaling pathways, HUVECs were pre-incubated with vehicle or specific inhibitors and then stimulated with or without CCL28 as described previously (Chen, et al. (2015) Ann. Rheum. Dis. 74:1898-1906).
The role of CCL28/CCR10 signaling pathways was further investigated in angiogenesis. Pretreatment of cells with 10 μM wortmannin (PI3K inhibitor), 5 μM U0126 (MAPK/ERK inhibitor), 1 mM L-NAME (eNOS inhibitor), 10 μM PP2 (Src kinase inhibitor), and 10 μM STO-609 ([…]) reduced endothelial cell tube formation induced by 500 ng/ml CCL28. […] In addition, CCL28 stimulation of endothelial cells for 24 hours enhanced expression levels of cell adhesion protein […] and anti-apoptotic protein B-cell leukemia/lymphoma-2 (Bcl-2), supporting the proliferation potential of endothelial cells in response to stimulation with CCL28.

CCR10-eNOS interaction [3] = molecular target: T1, CCR10-eNOS interaction; assay: Ligand-induced CCR10-eNOS interaction in HUVEC (Co-IP, confocal co-localization); format: cell-based
Method: as §1
Confocal Microscopy. For cellular immunostaining, confluent monolayers of cells grown on coverslips were prepared as described previously (Chen, et al. (2012) Mel. Biol. Cell 23(7):1388-1398). Fluorescent images were obtained using a Zeiss LSM 880 confocal microscope. The co-localization coefficient in specified regions of interest (ROI) were determined using Zeiss Zen software. Briefly, using the Overlay tool, the desired ROI was drawn along the cell edge and the values for the ROIs tabulated. The scatterplot and table were automatically adjusted to the pixel distribution for the selected ROI. The data from different treatment groups were collected and analyzed for statistical significance as described previously (Chen, et al. (2020) FASEB J. 34(4):5838-5850).
To investigate whether CCR10 interacts directly with eNOS, primary culture HUVEC were collected and prepared for co-immunoprecipitation (Co-IP) to assess CCR10-eNOS interaction following stimulation with 5 μM A23187. […] Similar results were obtained in endothelial cells following stimulation with 500 ng/ml human recombinant CCL28. CCR10-eNOS interaction was further supported by confocal microscopy and high-resolution imaging. Upon stimulation with A23187 or CCL28 for 5 minutes, CCR10 co-localized to a greater extent with eNOS on the plasma membrane. Co-localization coefficient in the regions of interest (ROI) in the plasma membrane were quantified from Zeiss LSM 880 confocal microscope images using Zeiss Zen software.

Molecule: peginesatide
elimination half-life ([1]; in healthy volunteers): 18.9 h

CCR10-eNOS interaction (Co-IP) (CCR10-eNOS interaction [2]): completely blocked
CCR10-eNOS interaction (Co-IP) (CCR10-eNOS interaction [2]; listed as Myr-CBD20): significantly reduced
Molecule: myr-TRKKTFKEVANAVKISASLM (Myristoyl-TRKKTFKEVANAVKISASLM) [Peptide P1]

Molecule: CC(C)(N)C(=O)N[C@@H](Cc1c[nH]cn1)C(=O)N[C@H](Cc1ccc2ccccc2c1)C(=O)N[C@H](Cc1ccccc1)C(=O)N[C@@H](CCCCN)C(N)=O [Ipamorelin] (H-[Aib]H[d2Nal][dF]K-NH2)
terminal half-life ([1]; in humans): about 2 hours

CCR10-eNOS interaction (Co-IP) (CCR10-eNOS interaction [2]): completely blocked
Molecule: myr-VANAVKISASLM (Myristoyl-VANAVKISASLM) [Peptide P3]

Molecule: N#CC(=C(/N)Sc1ccccc1N)/C(C#N)=C(\N)Sc1ccccc1N [Peptide U0126]
endothelial cell tube formation (HUVECs; pretreatment 5 μM): reduced

Molecule: O=C(O)c1ccc2c3c1cccc3c(=O)n1c3ccccc3nc21 [STO-609]
endothelial cell tube formation (HUVECs; pretreatment 10 μM): reduced

Molecule: albiglutide
half-life ([1]; in humans): 140 to 170 h

Molecule: COC(=O)[C@@H](N)CCCNC(=N)N[N+](=O)[O-] [L-NAME, N^G-nitro-L-arginine methyl ester]
endothelial cell tube formation (HUVECs; pretreatment 1 mM): reduced

Molecule: NC(=O)CC[C@@H]1NC(=O)[C@H](Cc2ccccc2)NC(=O)[C@H](Cc2ccc(O)cc2)NC(=O)[C@@H](N)CSSC[C@@H](C(=O)N2CCC[C@H]2C(=O)N[C@@H](CCCN=C(N)N)C(=O)NCC(N)=O)NC(=O)[C@H](CC(N)=O)NC1=O [vasopressin]
half-life ([1]; in humans): 0.167 to 0.583 h

Molecule: CNc1ccc2oc(C[C@H]3O[C@@]4(CC[C@H]3C)O[C@H]([C@H](C)C(=O)c3ccc[nH]3)[C@H](C)C[C@H]4C)nc2c1C(=O)O [Peptide A23187]
binding of CCR10 to eNOS (Co-IP) (CCR10-eNOS interaction [3]; HUVEC, 5 μM): Enhanced
time of maximum CCR10-eNOS binding (CCR10-eNOS interaction [3]; HUVEC, 5 μM): 5 minutes
Co-localization coefficient of CCR10 and eNOS (CCR10-eNOS interaction [3]; plasma membrane ROI, stimulation for 5 minutes, untreated control cells 43%): 81%

CCR10-eNOS interaction (Co-IP) (CCR10-eNOS interaction [2]): completely blocked
Molecule: myr-FKEVANAVKISASLM (Myristoyl-FKEVANAVKISASLM) [Peptide P2]
